Test results taken from US8580833B2, “Substituted imidazole derivatives and methods of use thereof” (TransTech Pharma, Inc., priority 2009, dated 2013).
Counter-ions that a name gives are not always drawn. Like-named read-outs stand apart in the source and are kept apart here.

What was measured:
[1] = Pharmacokinetic screening in rats, brain and plasma concentrations at 6 hour time point; format: in vivo; conditions: male, Sprague Dawley, rat, 5 mg/kg oral (PO), 6 hour time point; for concentration at 6 h: 2% Tween 80 in distilled water; for Kp at 6 h: brain/plasma ratio, read-out: B/P Ratio
Protocol: Pharmacokinetic screening in rats was performed on various compounds to measure brain and plasma concentrations at 6 hour time point.
The parameters for the pharmacokinetic protocol were as follows.
Amount of compound: 5 mg/kg
Species: Rat; Strain: Sprague Dawley; Sex: Male
Average body weight at dose: weight ranged from 271 to 423 grams
Average age at dose: age ranged from 9 to 14 weeks
Diet Status Overnight fasting
Number of Animals (n) for each time point: 2
Formulation: 2% Tween 80 in distilled water
Each formulation was administered once by oral gavage. The dose volume was 5 mL/kg for all animals. The actual volume administered to each animal was calculated and adjusted based on the most recent body weight.
Blood samples (approximately 300 μL whole blood) at (1, 2, and 4 h) was collected from each animal via tail vein except for terminal blood samples. Terminal blood (6 h) samples were collected via cardiac puncture. All samples were collected into tubes containing lithium heparin (Multivette 600 LH-Gel, Sarstedt, Newton, N.C., USA). Following collection, the tubes were placed in refrigerator (maximum 30 minutes) or until centrifugation under refrigeration (at 2 to 8° C.) at 1500 g for approximately 15 minutes. Each harvested plasma sample was then transferred into 1.2 mL polypropylene tubes, on the 96-Well Plate according to the 96-Well Plate plasma sample map and kept in freezer. Plasma samples were then analyzed for test substances.
Brain samples were collected immediately after the animals were euthanized at designated time points. Brain samples were rinsed with saline, blotted dry, and weighed. Brain samples were placed into individual containers and kept in freezer (−20° C.). Brain samples were then analyzed for test articles.
After analysis, all the plasma results are reported as ng/mL and brain sample results are reported as ng/g. In the table below, “ND” stands for not determined and “NA” stands for not applicable.

[2] = target: T1, RAGE (sRAGE) with S100b as the RAGE ligand (Homo sapiens, UniProt Q15109); experiment: ELISA: inhibition of sRAGE binding to plate-bound S100b; conditions: sRAGE 6 nM, hydrochloride salt form
T1 construct: generate soluble RAGE (sRAGE) comprised of the V and C domains
Protocol: (§1) The following assay method may be used to identify compounds of Formula (I) or pharmaceutically acceptable salts thereof which are useful as inhibitors of binding of physiological RAGE ligands, such as S100b and β-amyloid, to RAGE.
(§2) S100b, β-amyloid, or CML (500 ng/100 μL/well) in 100 mM sodium bicarbonate/sodium carbonate buffer (pH 9.8) is loaded onto the wells of a NUNC Maxisorp flat bottom 96-well microtitre plate. The plate is incubated at 4° C. overnight. The wells are aspirated and treated with 50 mM imidazole buffer saline (pH 7.2) (with 5 mM CaCl2/MgCl2) containing 1% bovine serum albumin (BSA) (300 μL/well) for 1 h at RT. The wells are aspirated.
(§3) Test compounds are dissolved in nanopure water (concentration: 10-100 μM). DMSO may be used as co-solvent. 25 μL of test compound solution in 4% DMSO is added, along with 75 μL sRAGE (6 nM FAC) to each well and samples are incubated for 1 h at 37° C. The wells are washed several times with 155 mM NaCl pH 7.2 buffer saline and are soaked for several seconds between each wash.
(§4) Non-radioactive detection is performed by adding:
(§5) 10 μL Biotinylated goat F(ab′)2 Anti-mouse IgG. (8.0×10-4 mg/mL, FAC), 5 μL Alk-phos-Streptavidin (3×10-3 mg/mL FAC), 0.42 μL per 5 mL Monoclonal antibody for sRAGE (FAC 6.0×10-3 mg/mL) to 5 mL 50 mM imidazole buffer saline (pH 7.2) containing 0.2% bovine serum albumin and 5 mM CaCl2. The mixture is incubated for 30 minutes at RT.
(§6) 100 μL of complex is added to each well and incubation is allowed to proceed at rt for 1 h. Wells are washed several times with wash buffer and soaked several seconds between each wash. 100 μL 1 mg/mL (pNPP) in 1 M diethanolamine (pH adjusted to 9.8 with HCl) is added. Color is allowed to develop in the dark for 30 min to 1 h at rt. The reaction is quenched with 10 μL of stop solution (0.5-1.0 N NaOH in 50% ethanol) and the absorbance is measured spectrophotometrically with a microplate reader at 405 nm.
(§7) IC50 (μM) of in the ELISA assay represents the concentration of compound at which 50% signal has been inhibited.

[3] = target: T2, RAGE (sRAGE) with β-amyloid as the RAGE ligand (Homo sapiens, UniProt Q15109); experiment: ELISA: inhibition of sRAGE binding to plate-bound β-amyloid; conditions: sRAGE 6 nM, hydrochloride salt form
T2 construct: generate soluble RAGE (sRAGE) comprised of the V and C domains
Protocol: as §1, §2, §3, §4, §5, §6, §7

[4] = brain, read-out: Brain concentration
[5] = plasma, read-out: Plasma concentration

T1 sequence (Q15109 23-342 limits assumed): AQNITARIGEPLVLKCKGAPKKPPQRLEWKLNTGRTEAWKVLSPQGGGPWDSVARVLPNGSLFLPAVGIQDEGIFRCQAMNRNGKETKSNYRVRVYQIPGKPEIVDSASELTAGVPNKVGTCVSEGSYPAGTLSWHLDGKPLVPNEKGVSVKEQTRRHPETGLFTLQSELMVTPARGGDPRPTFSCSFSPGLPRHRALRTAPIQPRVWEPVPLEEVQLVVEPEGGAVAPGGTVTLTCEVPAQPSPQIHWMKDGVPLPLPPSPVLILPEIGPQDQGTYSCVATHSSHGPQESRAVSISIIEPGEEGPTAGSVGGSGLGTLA
T2 sequence (Q15109 23-342 limits assumed): as above

| SMILES | concentration at 6 h [1, 4] [ng/g] | concentration at 6 h [1, 5] [ng/mL] | Kp at 6 h [1] | IC50 [2] [µM] | IC50 [3] [µM] |
| --- | --- | --- | --- | --- | --- |
| CCCCc1nc(-c2ccc(OC[C@H](O)CN(C)C)cc2)cn1-c1ccc(Oc2ccc(Cl)cc2)cc1 [Example 1, (R)-1-(4-{2-butyl-1-[4-(4-chloro-phenoxy)-phenyl]-1H-imidazol-4-yl}-phenoxy)-3-dimethylamino-propan-2-ol dihydrochloride] | 626 | 18 | 34.1 | 0.66 | 0.85 |
| CCCCc1nc(-c2ccc(OC[C@H](O)CN(CC)CC)cc2)cn1-c1ccc(Oc2ccc(Cl)cc2)cc1 [Example 2, (R)-1-(4-{2-butyl-1-[4-(4-chloro-phenoxy)-phenyl]-1H-imidazol-4-yl}-phenoxy)-3-diethylamino-propan-2-ol dihydrochloride] | 718 | 24 | 30.6 | 0.55 | 0.76 |
| CCCCc1nc(-c2ccc(OC[C@@H](O)CN(C)C)cc2)cn1-c1ccc(Oc2ccc(Cl)cc2)cc1 [Example 3, (S)-1-(4-{2-butyl-1-[4-(4-chloro-phenoxy)-phenyl]-1H-imidazol-4-yl}-phenoxy)-3-dimethylamino-propan-2-ol dihydrochloride] | 1120 | 48 | 23.3 | 0.84 | 0.8 |
| CCCCc1nc(-c2ccc(OC[C@@H](O)CN(CC)CC)cc2)cn1-c1ccc(Oc2ccc(Cl)cc2)cc1 [Example 4, (S)-1-(4-{2-butyl-1-[4-(4-chloro-phenoxy)-phenyl]-1H-imidazol-4-yl}-phenoxy)-3-diethylamino-propan-2-ol dihydrochloride] | 610 | 74 | 8.8 | 0.54 | 0.65 |
| CCOCc1nc(-c2ccc(OC[C@H](O)CN(CC)CC)cc2)cn1-c1ccc(Oc2ccc(Cl)cc2)cc1 [Example 7, (R)-1-(4-{1-[4-(4-chloro-phenoxy)-phenyl]-2-ethoxymethyl-1H-imidazol-4-yl}-phenoxy)-3-diethylamino-propan-2-ol dihydrochloride] | 1380 | 153 | 9.1 | 1.05 | 1.17 |
| CCCCc1nc(-c2ccc(OC[C@H](O)CNC)cc2)cn1-c1ccc(Oc2ccc(Cl)cc2)cc1 [Example 9, (R)-1-(4-{2-butyl-1-[4-(4-chloro-phenoxy)-phenyl]-1H-imidazol-4-yl}-phenoxy)-3-methylamino-propan-2-ol dihydrochloride] | 537 | 76 | 7.2 | 1.13 | 1.59 |
| CCCCc1nc(-c2ccc(OC[C@@H](O)CNC)cc2)cn1-c1ccc(Oc2ccc(Cl)cc2)cc1 [Example 10, (S)-1-(4-{2-butyl-1-[4-(4-chloro-phenoxy)-phenyl]-1H-imidazol-4-yl}-phenoxy)-3-methylamino-propan-2-ol dihydrochloride] | 212 | 74 | 2.9 | 1.14 | 1.32 |

The next lines start with the values.

| concentration at 6 h [1, 4] [ng/g] | concentration at 6 h [1, 5] [ng/mL] | Kp at 6 h [1] | IC50 [2] [µM] | IC50 [3] [µM] | SMILES |
| --- | --- | --- | --- | --- | --- |
| 3320 | 200 | 16.7 | 0.71 | 1.02 | CCOCc1nc(-c2ccc(OC[C@H](O)CN(C)C)cc2)cn1-c1ccc(Oc2ccc(Cl)cc2)cc1 [Example 5, (R)-1-(4-{1-[4-(4-chloro-phenoxy)-phenyl]-2-ethoxymethyl-1H-imidazol-4-yl}-phenoxy)-3-dimethylamino-propan-2-ol dihydrochloride] |
| 3900 | 155 | 25.3 | 0.77 | 0.78 | CCOCc1nc(-c2ccc(OC[C@@H](O)CN(C)C)cc2)cn1-c1ccc(Oc2ccc(Cl)cc2)cc1 [Example 6, (S)-1-(4-{1-[4-(4-chloro-phenoxy)-phenyl]-2-ethoxymethyl-1H-imidazol-4-yl}-phenoxy)-3-dimethylamino-propan-2-ol dihydrochloride] |
| 2700 | 137 | 19.6 | 0.8 | 1.26 | CCOCc1nc(-c2ccc(OC[C@@H](O)CN(CC)CC)cc2)cn1-c1ccc(Oc2ccc(Cl)cc2)cc1 [Example 8, (S)-1-(4-{1-[4-(4-chloro-phenoxy)-phenyl]-2-ethoxymethyl-1H-imidazol-4-yl}-phenoxy)-3-diethylamino-propan-2-ol dihydrochloride] |
| 343 | 72 | 4.8 | 0.81 | 1.02 | CCCCc1nc(-c2ccc(OC[C@H](O)CNCC)cc2)cn1-c1ccc(Oc2ccc(Cl)cc2)cc1 [Example 11, (R)-1-(4-{2-butyl-1-[4-(4-chloro-phenoxy)-phenyl]-1H-imidazol-4-yl}-phenoxy)-3-ethylamino-propan-2-ol dihydrochloride] |
| 540 | 124 | 4.5 | 0.98 | 1.19 | CCCCc1nc(-c2ccc(OC[C@@H](O)CNCC)cc2)cn1-c1ccc(Oc2ccc(Cl)cc2)cc1 [Example 12, (S)-1-(4-{2-butyl-1-[4-(4-chloro-phenoxy)-phenyl]-1H-imidazol-4-yl}-phenoxy)-3-ethylamino-propan-2-ol dihydrochloride] |
| – | – | – | 4.61 | 2.16 | CCOCc1nc(-c2ccc(OC[C@H](O)CNC)cc2)cn1-c1ccc(Oc2ccc(Cl)cc2)cc1 [Example 13, (R)-1-(4-{1-[4-(4-chloro-phenoxy)-phenyl]-2-ethoxymethyl-1H-imidazol-4-yl}-phenoxy)-3-methylamino-propan-2-ol dihydrochloride] |
| – | – | – | 4.56 | 2.37 | CCOCc1nc(-c2ccc(OC[C@@H](O)CNC)cc2)cn1-c1ccc(Oc2ccc(Cl)cc2)cc1 [Example 14, (S)-1-(4-{1-[4-(4-chloro-phenoxy)-phenyl]-2-ethoxymethyl-1H-imidazol-4-yl}-phenoxy)-3-methylamino-propan-2-ol dihydrochloride] |
| – | – | – | 3.14 | 2.47 | CCNC[C@@H](O)COc1ccc(-c2cn(-c3ccc(Oc4ccc(Cl)cc4)cc3)c(COCC)n2)cc1 [Example 15, (R)-1-(4-{1-[4-(4-chloro-phenoxy)-phenyl]-2-ethoxymethyl-1H-imidazol-4-yl}-phenoxy)-3-ethylamino-propan-2-ol dihydrochloride] |
| – | – | – | 3.13 | 1.55 | CCNC[C@H](O)COc1ccc(-c2cn(-c3ccc(Oc4ccc(Cl)cc4)cc3)c(COCC)n2)cc1 [Example 16, (S)-1-(4-{1-[4-(4-chloro-phenoxy)-phenyl]-2-ethoxymethyl-1H-imidazol-4-yl}-phenoxy)-3-ethylamino-propan-2-ol dihydrochloride] |
